According to patent publication US20090130101A1, “ANTI-CANCER THERAPY WITH AN EXTRACT OF SCUTELLARIA BARBATA” (BIONOVO, INC., priority 2007, published 2009):

Legend:
ROS = ROS generation, CM-H2DCFDA conversion; type: cell-based; settings: incubation of cells with the ROS scavenger prior to addition of BZL101, FIG. 10
[1] = tested on: subcutaneous cancer xenografts; type: in vivo, mice; settings: BZL101 0.5 ml oral gavage every third day; cyclophosphamide 25 mg/Kg/day in drinking water; FIG. 6
Procedure: As in Example 1, above, 10^5 cells were administered to each animal subcutaneously on Day 0. The animals were divided into four groups. The control group received only normal drinking water. The cyclophosphamide only group received 25 mg/Kg/day of cyclophosphamide in their drinking water.

Row | SMILES | effect on BZL101-induced ROS generation (ROS) | tumor growth [1]
1 | CC(=O)N[C@@H](CS)C(=O)O [N-acetyl-cysteine] | prevented most of the increase in ROS generation | 
2 | O=P1(N(CCCl)CCCl)NCCCO1 (centres unmarked) [cyclophosphamide] |  | inhibited tumor growth as compared to the control
